In patent US5700478A, “Water-soluble pressure-sensitive mucoadhesive and devices provided therewith for emplacement in a mucosa-lined body cavity” (Cygnus, Inc., priority 1995, dated 1997):
Structures can show the parent of a compound that is named as a salt.

How the values were obtained:
[1] = Transport through pig mucosa (Franz diffusion cells); assay type: in vitro ADME, porcine
Experimental: In this example, bilaminate mucoadhesive discs, containing as an active substance benzocaine or Dyclonine HCl, were affixed to porcine buccal mucosa and mounted on Franz diffusion cells as described in Example XIII. Avenge amounts of active substance was measured using HPLC, and percents were expressed as a percent of the total initially in the disc.
Particularly, the donor side of the cell was filled with pH 6 buffer and the receiver side was filled with phosphate buffered saline ("PBS"). Samples were taken from the receiver side every thirty minutes for three hours, and the samples were analyzed by HPLC. The average amount and the average percent of active substance appearing in the receiver side after three hours are shown in Table IV.

[2] = Transport through human stratum corneum (Franz diffusion cells); assay type: in vitro ADME
Experimental: In this example, bilaminate mucoadhesive discs, containing as an active substance benzocaine or Dyclonine HCl, were affixed to human stratum corneum and mounted on Franz diffusion cells. The donor side of the cell was filled with pH 6 buffer and the receiver side was filled with PBS. Samples were taken from the receiver side and analyzed using HPLC, and the average amount and percentage of active substance appearing in the receiver cell were determined.

[3] = Release of benzocaine into distilled water: effect of polymer molecular weight; assay type: physicochemical; conditions: HPC 80 k vs. 300 k in active-containing layer, FIG. 11
Experimental: In this Example, bilaminate mucoadhesive discs containing benzocaine were constructed generally as described in Example IX, substituting benzocaine for Dyclonine. Discs were made using HPC both at the same molecular weight as described in Example 2 (80 k), and at a higher molecular weight (300 k), and the release into distilled water was tested as described in Example X. The results are shown in FIG. 11.

SMILES: CCCCOc1ccc(C(=O)CCN2CCCCC2)cc1 [Dyclonine HCl]
- Average % Transported ([1]; pH 6): 3.94%
- Average Amount Delivered ([1]; pH 6): 282.77 μg/cm^2
- Average % Transported ([2]; pH 6): 0.18%
- Average Amount Delivered ([2]; pH 6): 14.60 μg/cm^2

SMILES: CCOC(=O)c1ccc(N)cc1 [Benzocaine, benzocaine]
- release rate of benzocaine vs. molecular weight of HPC [3]: decrease in release rate of benzocaine with increasing molecular weight of HPC
- Average % Transported ([1]; 15% in bilaminate disc, % of drug initially in device, three hours, donor pH 6 buffer, receiver PBS): 3.29%
- Average Amount Delivered ([1]; pH 6): 284.63 μg/cm^2
- Average % Transported ([2]; 15% in bilaminate disc, donor pH 6 buffer, receiver PBS): 2.42%
- Average Amount Delivered ([2]; pH 6): 255.56 μg/cm^2
